# Results published in ChEMBL document CHEMBL1201862, “PubChem BioAssay data set” (2004).
# Activity calls are given as the source filed them.
# How the values were obtained:
# [1] = molecular target: T1, Fatty acid synthase (Homo sapiens, UniProt P49327); experiment: inhibition of human FAS-TE enzyme activity – biochemical, kinetic fluorescence intensity, dose response (AID 624326); assay type: functional;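 further: rate of fluorescence rise from hydrolysis of a fluorogenic O-methyl fluorescein ester substrate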
# [2] = molecular target: T1, Fatty acid synthase; experiment: inhibition of human FAS-TE enzyme activity – biochemical, endpoint fluorescence intensity, uHTS hits, dose response (AID 624327); assay type: functional;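 further: fluorescence from hydrolysis of an O-methyl fluorescein acyl ester substrate by the enzyme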
# [3] = molecular target: Prothrombin (Homo sapiens, UniProt P00734); experiment: Thrombin 1536 HTS Dose Response Confirmation. [Related pubchem assays: 1046 (Thrombin 1536 HTS; hits were confirmed in this assay)]; assay type: functional
# [4] = molecular target: Albumin (Bos taurus, UniProt P02769); experiment: Counterscreen for inhibitors of T-cell receptor (TCR)-CD3 interaction: Fluorescence-based biochemical high throughput dose response assay to identify inhibitors of T-cell receptor (TCR)-CD3 interaction using a TAMRA-labeled BSA probe.; assay type: functional
# [5] = molecular target: T2, High affinity choline transporter 1 (Homo sapiens, UniProt Q9GZV3); experiment: human choline transporter blockers, potency – cell-based, 5-point CRC, membrane potential dye, dose response (AID 504840); assay type: functional
# T2 sequence (Q9GZV3 whole entry): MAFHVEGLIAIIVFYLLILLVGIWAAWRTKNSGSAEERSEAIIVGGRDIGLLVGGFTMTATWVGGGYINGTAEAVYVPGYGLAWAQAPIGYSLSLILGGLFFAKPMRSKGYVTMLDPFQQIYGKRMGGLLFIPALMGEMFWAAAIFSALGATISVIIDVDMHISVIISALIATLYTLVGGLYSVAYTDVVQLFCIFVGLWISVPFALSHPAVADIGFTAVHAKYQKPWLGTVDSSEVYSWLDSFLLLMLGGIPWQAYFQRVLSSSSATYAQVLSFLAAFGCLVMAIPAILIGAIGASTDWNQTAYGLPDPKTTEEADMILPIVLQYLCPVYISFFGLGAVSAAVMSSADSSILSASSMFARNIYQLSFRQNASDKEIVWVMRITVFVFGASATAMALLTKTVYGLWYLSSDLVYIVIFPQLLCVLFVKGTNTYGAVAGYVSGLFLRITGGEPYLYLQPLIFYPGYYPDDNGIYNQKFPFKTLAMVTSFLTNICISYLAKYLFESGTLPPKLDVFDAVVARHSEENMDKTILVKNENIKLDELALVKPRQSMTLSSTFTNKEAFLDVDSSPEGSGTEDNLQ
# [6] = molecular target: Heat shock protein HSP 90-alpha (Homo sapiens, UniProt P07900); assay type: functional, organism-based
# [7] = molecular target: Genome polyprotein (dengue virus type 2, UniProt P29990); experiment: flavivirus cap methylation enzyme inhibition – biochemical, confirmation dose response, primary screen (AID 588689); assay type: functional
# [8] = molecular target: T3, Zinc finger protein mex-5 (Caenorhabditis elegans, UniProt Q9XUB2); experiment: potency of MEX-5 RNA-binding blockers – biochemical, C. elegans, fluorescence polarization, dose response (AID 1960)
# T3 sequence (Q9XUB2 whole entry): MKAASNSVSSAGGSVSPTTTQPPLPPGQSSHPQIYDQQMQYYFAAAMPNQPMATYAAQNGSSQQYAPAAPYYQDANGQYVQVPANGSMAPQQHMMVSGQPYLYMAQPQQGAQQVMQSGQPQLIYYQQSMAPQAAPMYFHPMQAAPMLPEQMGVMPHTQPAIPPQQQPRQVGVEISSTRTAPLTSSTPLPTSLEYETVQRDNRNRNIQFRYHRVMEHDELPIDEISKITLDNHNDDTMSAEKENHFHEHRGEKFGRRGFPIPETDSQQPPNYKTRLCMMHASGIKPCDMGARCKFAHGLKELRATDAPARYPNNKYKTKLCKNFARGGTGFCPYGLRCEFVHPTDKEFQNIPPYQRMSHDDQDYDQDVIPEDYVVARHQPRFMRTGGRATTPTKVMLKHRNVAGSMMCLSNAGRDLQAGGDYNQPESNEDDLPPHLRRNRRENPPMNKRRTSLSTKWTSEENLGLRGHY
# [9] = molecular target: T4, RNA-binding protein pos-1 (Caenorhabditis elegans, UniProt G5EF15); experiment: disruptors of C. elegans POS-1 RNA interaction – biochemical, fluorescence polarization, dose response (AID 1964);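 further: purified POS-1 fused to maltose binding protein made in E. coli; potency of compounds blocking POS-1 binding to fluorescent RNA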
# T4 sequence (G5EF15 whole entry): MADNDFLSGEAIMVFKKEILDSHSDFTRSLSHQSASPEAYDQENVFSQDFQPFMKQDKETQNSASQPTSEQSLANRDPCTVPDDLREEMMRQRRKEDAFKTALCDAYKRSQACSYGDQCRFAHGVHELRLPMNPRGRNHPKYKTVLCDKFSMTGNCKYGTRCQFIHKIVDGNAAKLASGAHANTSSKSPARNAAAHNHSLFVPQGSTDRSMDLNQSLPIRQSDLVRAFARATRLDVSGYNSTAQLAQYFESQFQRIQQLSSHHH
# [10] = molecular target: T5, Caspase-6 (Homo sapiens, UniProt P55212); experiment: inhibition of CASP6 peptide cleavage – biochemical, VEID-R110 fluorescence, cherry-pick, dose response (AID 720632)
# T5 sequence (P55212 whole entry): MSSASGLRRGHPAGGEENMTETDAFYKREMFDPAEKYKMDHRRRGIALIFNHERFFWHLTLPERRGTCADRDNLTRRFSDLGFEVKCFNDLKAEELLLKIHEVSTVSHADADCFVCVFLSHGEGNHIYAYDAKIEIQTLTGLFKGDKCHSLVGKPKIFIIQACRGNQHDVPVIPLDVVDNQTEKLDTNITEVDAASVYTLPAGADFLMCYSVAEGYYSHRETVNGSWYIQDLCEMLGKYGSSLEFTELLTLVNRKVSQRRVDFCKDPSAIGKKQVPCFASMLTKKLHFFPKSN
# [11] = molecular target: T6, Calpain-2 catalytic subunit (Sus scrofa, UniProt P43367); experiment: m-calpain protease blockers, concentration series – biochemical, fluorogenic peptide substrate, dose response (AID 1420); assay type: functional
# T6 sequence (P43367 whole entry): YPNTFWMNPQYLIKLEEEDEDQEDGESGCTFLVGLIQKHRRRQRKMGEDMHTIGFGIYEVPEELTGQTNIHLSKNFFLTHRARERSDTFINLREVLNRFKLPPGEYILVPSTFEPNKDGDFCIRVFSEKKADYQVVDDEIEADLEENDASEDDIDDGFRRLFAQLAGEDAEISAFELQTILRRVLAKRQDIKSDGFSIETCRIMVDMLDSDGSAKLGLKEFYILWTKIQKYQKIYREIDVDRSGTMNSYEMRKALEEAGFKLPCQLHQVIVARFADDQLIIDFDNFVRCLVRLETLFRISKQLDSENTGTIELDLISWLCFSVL
# [12] = test system: H4; experiment: Luminescence Cell-Based Dose Response HTS to Identify Activators of 5'UTR Stem-Loop Driven Prion Protein mRNA Translation in H4 Neuroglioblastoma Cells. [Related pubchem assays: 1829 (Project Summary), 1814 (Primary HTS)]; assay type: functional; conditions: Homo sapiens
# [13] = Luminescence Cell-Based Dose Confirmation HTS to Identify Activators of 5'UTR Stem-Loop Driven Alpha-Synuclein mRNA Translation in H4 Neuroglioblastoma Cells. [Related pubchem assays: 1829 (Project Summary), 1814 (Primary HTS)]; assay type: functional
# [14] = Counterscreen for inhibitors of Trypanosoma brucei methionyl tRNA synthetase (MetRS): Luminescence-based cell-based high throughput dose response assay to identify compounds that are cytotoxic to Jurkat human T lymphocyte cells.; assay type: functional
# [15] = Luminescence Cell-Based Dose Response HTS to Identify Activators of Luciferase Translation or Activity in H4 […] Cells. [Related pubchem assays: 1829 (Project Summary), 1814 (Primary HTS)]; assay type: functional
# [16] = molecular target: Large T antigen (Simian virus 40, UniProt P03070); assay type: functional, Betapolyomavirus macacae;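 further: Confirmatory-stage PubChem screen for compounds that inhibit SV40 T antigen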
# [17] = molecular target: T7, Replicative DNA helicase DnaB (Mycobacterium tuberculosis, UniProt P9WMR3); experiment: DnaB intein splicing inhibitors, dose response, biochemical, cell-free fluorescence (AID 449749); assay type: functional
# T7 sequence (P9WMR3 whole entry): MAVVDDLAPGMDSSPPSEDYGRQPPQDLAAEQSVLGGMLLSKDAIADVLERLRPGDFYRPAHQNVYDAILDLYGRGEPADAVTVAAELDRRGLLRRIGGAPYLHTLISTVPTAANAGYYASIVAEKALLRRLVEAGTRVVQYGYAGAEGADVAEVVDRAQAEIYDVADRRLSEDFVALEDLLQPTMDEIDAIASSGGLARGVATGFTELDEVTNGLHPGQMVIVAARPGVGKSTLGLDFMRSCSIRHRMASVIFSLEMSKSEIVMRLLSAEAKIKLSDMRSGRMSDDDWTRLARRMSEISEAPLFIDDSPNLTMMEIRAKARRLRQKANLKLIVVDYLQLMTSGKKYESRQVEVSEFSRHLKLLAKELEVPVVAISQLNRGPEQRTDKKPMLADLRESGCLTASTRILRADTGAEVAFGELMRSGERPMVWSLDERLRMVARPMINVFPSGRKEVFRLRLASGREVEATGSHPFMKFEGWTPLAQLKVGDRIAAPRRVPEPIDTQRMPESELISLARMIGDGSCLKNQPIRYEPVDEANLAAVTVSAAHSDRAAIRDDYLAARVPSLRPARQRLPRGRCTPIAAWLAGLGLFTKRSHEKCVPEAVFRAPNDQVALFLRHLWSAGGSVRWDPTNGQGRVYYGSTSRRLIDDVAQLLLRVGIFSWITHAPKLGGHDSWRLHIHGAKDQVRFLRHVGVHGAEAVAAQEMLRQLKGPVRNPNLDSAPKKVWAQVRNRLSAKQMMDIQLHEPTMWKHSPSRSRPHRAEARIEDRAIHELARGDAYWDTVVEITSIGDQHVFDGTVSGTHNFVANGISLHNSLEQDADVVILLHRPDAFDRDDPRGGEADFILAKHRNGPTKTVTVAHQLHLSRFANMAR
# [18] = molecular target: T8, Protein RecA (Mycobacterium tuberculosis, UniProt P9WHJ3); experiment: Fluorescence Cell-Free Homogeneous Dose Retest to Identify Inhibitors of RecA-Intein Splicing Activity. [Related pubchem assays (depositor defined):AID2097, AID2223, AID489010, AID492950]; assay type: functional
# T8 sequence (P9WHJ3 whole entry): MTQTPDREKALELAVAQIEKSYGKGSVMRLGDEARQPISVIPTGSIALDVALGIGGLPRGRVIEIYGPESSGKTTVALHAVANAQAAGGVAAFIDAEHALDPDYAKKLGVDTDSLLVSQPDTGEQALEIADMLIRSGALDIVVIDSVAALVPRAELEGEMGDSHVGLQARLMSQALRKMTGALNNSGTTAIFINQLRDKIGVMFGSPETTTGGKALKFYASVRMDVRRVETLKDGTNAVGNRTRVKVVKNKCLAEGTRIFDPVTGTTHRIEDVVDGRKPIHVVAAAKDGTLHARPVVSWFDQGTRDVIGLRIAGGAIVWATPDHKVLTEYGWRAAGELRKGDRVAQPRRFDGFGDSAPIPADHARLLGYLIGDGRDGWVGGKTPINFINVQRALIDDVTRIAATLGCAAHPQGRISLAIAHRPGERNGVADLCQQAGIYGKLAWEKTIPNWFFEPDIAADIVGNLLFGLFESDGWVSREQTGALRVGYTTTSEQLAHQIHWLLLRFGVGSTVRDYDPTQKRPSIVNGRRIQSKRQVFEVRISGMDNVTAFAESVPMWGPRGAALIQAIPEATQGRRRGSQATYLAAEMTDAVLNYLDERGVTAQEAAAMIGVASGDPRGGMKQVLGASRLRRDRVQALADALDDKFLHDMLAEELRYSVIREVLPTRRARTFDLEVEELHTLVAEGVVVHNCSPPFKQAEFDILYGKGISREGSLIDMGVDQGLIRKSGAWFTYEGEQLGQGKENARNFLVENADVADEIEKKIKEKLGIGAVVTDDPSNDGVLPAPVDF
# [19] = molecular target: Nonstructural protein 1 (Influenza A virus, UniProt Q194T2); assay type: functional, Influenza A virus (A/California/07/2009(H1N1))
# Sequence of Nonstructural protein 1 (Q194T2 whole entry): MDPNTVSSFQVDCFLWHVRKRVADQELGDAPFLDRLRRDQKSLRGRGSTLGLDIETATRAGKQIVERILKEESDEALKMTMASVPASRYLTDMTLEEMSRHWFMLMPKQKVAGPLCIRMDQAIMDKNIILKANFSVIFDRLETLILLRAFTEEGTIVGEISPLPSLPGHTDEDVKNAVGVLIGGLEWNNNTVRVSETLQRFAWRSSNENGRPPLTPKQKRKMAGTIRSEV
# T1 sequence (P49327 whole entry): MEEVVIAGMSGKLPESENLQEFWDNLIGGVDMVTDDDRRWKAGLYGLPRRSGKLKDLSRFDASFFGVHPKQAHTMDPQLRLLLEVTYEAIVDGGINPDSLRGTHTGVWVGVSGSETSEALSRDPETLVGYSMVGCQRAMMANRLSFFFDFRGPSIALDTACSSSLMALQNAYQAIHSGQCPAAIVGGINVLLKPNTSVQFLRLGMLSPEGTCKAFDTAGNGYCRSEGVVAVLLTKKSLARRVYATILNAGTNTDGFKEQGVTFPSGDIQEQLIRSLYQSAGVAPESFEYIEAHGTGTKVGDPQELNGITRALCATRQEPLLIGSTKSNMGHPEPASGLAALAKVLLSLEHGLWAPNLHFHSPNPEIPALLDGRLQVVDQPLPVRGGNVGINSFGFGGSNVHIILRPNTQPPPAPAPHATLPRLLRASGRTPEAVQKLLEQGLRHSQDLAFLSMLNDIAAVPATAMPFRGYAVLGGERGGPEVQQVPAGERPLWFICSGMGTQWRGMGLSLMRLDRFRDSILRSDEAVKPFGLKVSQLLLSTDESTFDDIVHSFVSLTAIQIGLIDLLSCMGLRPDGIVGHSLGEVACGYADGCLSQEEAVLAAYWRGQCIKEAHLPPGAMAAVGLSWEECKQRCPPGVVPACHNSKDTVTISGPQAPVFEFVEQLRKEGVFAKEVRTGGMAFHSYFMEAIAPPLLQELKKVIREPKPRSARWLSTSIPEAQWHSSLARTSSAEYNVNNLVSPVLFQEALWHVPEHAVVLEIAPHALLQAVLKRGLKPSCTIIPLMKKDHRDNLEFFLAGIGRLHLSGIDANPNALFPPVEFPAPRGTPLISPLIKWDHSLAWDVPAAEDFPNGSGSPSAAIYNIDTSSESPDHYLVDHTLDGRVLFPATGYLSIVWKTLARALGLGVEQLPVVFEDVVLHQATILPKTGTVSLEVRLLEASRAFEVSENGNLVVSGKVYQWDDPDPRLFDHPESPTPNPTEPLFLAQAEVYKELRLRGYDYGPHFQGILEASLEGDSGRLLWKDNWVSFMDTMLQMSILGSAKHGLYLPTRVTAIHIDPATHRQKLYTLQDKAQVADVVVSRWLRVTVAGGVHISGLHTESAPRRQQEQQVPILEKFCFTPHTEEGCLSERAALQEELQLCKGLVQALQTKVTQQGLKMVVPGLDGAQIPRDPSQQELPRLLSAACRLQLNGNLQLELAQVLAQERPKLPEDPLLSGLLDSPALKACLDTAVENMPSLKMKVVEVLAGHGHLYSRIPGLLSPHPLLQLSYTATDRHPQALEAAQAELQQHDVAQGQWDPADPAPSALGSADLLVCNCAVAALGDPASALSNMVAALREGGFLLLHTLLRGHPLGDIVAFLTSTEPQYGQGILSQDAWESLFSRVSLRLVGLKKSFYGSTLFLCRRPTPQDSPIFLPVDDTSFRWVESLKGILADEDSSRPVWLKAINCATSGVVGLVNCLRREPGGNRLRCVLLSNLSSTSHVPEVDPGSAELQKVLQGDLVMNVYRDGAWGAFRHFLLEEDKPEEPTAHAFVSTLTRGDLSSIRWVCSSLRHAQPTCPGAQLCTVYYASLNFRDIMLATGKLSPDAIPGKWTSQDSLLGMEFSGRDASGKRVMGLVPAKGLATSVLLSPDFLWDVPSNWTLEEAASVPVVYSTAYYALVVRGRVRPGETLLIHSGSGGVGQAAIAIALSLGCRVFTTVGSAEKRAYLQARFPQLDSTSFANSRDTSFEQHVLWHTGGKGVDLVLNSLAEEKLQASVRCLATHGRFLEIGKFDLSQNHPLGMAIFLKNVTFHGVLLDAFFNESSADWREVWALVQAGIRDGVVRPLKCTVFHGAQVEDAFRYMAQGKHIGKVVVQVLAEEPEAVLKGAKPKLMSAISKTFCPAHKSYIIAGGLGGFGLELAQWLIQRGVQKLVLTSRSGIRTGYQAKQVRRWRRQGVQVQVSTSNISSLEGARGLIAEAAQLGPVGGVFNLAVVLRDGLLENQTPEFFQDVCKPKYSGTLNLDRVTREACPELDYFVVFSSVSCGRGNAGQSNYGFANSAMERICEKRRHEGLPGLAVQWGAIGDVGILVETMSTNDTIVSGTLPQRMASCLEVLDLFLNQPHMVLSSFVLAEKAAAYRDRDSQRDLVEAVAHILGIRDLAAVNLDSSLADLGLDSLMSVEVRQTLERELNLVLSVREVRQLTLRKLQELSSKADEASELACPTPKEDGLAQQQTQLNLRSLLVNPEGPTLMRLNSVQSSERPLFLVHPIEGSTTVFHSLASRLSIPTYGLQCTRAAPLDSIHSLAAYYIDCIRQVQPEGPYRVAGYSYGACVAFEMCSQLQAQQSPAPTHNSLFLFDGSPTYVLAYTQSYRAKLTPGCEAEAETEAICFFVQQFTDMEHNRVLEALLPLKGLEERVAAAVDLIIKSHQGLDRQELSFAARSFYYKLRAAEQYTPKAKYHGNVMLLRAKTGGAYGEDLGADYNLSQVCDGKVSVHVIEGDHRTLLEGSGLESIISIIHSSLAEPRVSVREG
# Sequence of Albumin (P02769 whole entry): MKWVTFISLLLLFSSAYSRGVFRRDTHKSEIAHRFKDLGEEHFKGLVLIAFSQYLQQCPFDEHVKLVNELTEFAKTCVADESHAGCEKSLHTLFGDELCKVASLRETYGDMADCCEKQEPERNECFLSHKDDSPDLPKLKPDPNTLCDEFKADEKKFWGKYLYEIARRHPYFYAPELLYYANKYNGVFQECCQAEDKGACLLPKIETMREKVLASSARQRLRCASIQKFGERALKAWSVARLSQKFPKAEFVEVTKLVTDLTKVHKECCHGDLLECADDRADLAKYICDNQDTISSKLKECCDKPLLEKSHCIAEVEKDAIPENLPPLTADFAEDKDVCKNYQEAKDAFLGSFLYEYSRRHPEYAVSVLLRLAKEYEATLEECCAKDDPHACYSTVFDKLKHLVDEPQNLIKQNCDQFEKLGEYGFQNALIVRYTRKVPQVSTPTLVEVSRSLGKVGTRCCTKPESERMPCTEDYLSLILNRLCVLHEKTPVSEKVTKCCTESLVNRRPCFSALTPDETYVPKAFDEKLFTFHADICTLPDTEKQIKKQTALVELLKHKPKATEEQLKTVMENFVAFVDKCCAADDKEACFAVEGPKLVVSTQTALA
# Sequence of Genome polyprotein (P29990 2492-3391 limits assumed): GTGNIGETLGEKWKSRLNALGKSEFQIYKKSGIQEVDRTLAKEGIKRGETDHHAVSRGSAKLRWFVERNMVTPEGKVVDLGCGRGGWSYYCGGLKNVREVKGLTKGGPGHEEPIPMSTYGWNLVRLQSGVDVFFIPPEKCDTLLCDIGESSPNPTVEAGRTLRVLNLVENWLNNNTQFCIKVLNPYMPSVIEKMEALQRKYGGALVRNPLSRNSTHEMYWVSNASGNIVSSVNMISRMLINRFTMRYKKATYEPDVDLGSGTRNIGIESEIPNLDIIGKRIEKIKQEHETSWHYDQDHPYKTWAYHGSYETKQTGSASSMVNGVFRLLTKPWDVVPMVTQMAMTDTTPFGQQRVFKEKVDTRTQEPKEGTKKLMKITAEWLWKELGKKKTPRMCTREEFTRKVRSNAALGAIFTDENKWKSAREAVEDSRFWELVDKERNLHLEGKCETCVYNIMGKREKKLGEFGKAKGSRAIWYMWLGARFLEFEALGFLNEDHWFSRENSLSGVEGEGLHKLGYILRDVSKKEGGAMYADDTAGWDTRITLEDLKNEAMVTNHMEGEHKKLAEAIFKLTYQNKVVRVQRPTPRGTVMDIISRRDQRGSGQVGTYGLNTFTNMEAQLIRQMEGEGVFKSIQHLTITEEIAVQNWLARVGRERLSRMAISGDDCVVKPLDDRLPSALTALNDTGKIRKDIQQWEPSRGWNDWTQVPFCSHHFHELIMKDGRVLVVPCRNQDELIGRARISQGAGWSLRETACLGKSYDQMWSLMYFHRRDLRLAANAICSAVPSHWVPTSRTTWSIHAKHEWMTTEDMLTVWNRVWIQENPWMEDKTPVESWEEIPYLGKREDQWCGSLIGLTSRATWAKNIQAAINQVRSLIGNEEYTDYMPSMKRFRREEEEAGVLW
# Sequence of Large T antigen (P03070 whole entry): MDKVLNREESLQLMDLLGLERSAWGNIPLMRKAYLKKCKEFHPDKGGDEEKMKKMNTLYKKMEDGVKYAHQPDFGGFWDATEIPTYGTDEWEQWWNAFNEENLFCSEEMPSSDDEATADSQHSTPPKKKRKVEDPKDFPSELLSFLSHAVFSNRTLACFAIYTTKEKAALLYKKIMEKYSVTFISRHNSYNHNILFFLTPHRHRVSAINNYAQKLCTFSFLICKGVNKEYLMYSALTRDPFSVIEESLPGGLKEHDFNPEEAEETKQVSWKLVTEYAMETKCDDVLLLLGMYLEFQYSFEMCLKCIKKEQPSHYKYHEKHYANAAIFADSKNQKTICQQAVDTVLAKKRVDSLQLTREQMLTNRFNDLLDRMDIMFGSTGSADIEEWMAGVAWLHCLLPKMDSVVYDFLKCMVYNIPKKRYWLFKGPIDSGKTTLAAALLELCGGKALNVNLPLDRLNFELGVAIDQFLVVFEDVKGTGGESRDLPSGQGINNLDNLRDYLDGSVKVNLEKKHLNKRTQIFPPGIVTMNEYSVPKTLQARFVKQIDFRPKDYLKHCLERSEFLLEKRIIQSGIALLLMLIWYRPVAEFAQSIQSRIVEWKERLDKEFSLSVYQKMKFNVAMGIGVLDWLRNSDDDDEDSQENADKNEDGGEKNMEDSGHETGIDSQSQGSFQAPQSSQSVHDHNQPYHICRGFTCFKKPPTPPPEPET
compound,measurement,setting,value
CC(C)CSc1ncc(-c2cccc(C(F)(F)F)c2)cn1,IC50,[1],14.2 µM (active)
same,IC50,[2],15.5 µM (active)
Cc1c(Cl)cnc(NC(=O)COC(=O)CCC(=O)c2cccs2)c1Cl,IC50,[3],2.77 µM (active)
COC(=O)Nc1ccc(S(=O)(=O)NNC(=O)c2c(O)c3ccccc3n(C)c2=O)cc1,IC50,[4],> 94.1 µM (inactive)
same,IC50,[5],13.2 µM (active)
CCC(=O)OC1(C)C(=O)C2=COC(c3ccc(OC)cc3)=CC2=C(Br)C1=O (stereo not drawn),AC50,[6],1.51 µM (active)
same,IC50,[7],> 100 µM (active)
same,EC50,[8],32.9 µM (active)
same,EC50,[9],31.5 µM (active)
N#Cc1ccc(Sc2nc3ccccc3[nH]2)cc1C#N,IC50,[1],2.3 µM (active)
same,IC50,[2],2.7 µM (active)
Cc1nc(-c2cnn(-c3ccccc3)c2)c2cc(C)oc2n1,IC50,[3],> 50 µM (not active)
O=C(O)c1ccc(Cl)c(S(=O)(=O)Nc2ccc3c[nH]nc3c2)c1,AC50,[10],11.1 µM (active)
C=C(C)COc1ccc(-c2n[nH]cc2Oc2ccccc2OCC)c(O)c1,IC50,[11],11.7 µM (not active)
Fc1ccccc1CSc1nc2cc(Br)c[nH]c-2n1,EC50,[12],20.3 µM (active)
same,EC50,[13],0.116 µM (active)
same,IC50,[14],83.3 µM (inactive)
same,EC50,[15],89.7 µM (active)
CCc1ccc(S(=O)(=O)NCc2cn3c(C)csc3n2)s1,IC50,[11],6.07 µM (not active)
Cc1ccnc(NC(=O)c2ccc([N+](=O)[O-])o2)c1,IC50,[3],> 50 µM (not active)
O=C(O)c1cc(Nc2cc(Cl)c3nonc3c2[N+](=O)[O-])ccc1O,IC50,[16],40.4 µM (active)
same,AC50,[17],1.17 µM (active)
same,IC50,[7],8.55 µM (active)
same,AC50,[10],14.6 µM (active)
same,EC50,[18],1.33 µM (active)
COc1ccccc1CNC(=O)COC(=O)c1cc([N+](=O)[O-])ccc1N1CCOCC1,IC50,[1],1.64 µM (active)
same,IC50,[2],1.31 µM (active)
COc1ccc(Cl)cc1N(CC(=O)N/N=C/c1ccc(OCC(N)=O)cc1)S(C)(=O)=O,AC50,[10],9 µM (active)
CC(C)(C)c1csc(N/N=C/c2cccnc2)n1,IC50,[11],18.6 µM (not active)
COc1cc(O)c(/C=N/NC(=O)c2ccncc2)c(OC)c1[N+](=O)[O-],IC50,[4],> 94.1 µM (inactive)
same,IC50,[19],8.82 µM (active)
COc1ccc([N+](=O)[O-])cc1NC(=O)Nc1ccccc1,IC50,[1],15.5 µM (active)
same,IC50,[2],19.9 µM (active)
